In series [1] the target is T1, O-GlcNAcylated c-Rel (Homo sapiens, UniProt Q04864).
T1 construct: endogenous in cells; host or cells: Jurkat T cells
T1 sequence (Q04864 1-619): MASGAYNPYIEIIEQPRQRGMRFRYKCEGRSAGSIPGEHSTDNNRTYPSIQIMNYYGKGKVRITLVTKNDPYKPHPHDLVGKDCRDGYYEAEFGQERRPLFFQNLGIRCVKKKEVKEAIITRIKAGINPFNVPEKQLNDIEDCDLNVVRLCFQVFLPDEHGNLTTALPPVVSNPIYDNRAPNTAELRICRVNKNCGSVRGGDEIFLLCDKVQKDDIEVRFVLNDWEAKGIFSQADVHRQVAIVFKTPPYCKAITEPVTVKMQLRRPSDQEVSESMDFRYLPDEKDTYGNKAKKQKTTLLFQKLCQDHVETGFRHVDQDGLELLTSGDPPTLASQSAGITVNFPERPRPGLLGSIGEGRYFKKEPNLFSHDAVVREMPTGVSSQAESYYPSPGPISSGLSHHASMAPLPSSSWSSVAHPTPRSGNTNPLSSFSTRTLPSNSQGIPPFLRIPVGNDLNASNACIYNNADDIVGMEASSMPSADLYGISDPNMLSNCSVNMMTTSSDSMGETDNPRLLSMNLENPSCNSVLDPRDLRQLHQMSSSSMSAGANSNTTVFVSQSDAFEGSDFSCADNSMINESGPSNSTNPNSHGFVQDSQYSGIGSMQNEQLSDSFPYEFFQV
The experiment in a line: TCR-induced O-GlcNAcylation-dependent GMCSF and IL-2 expression in Jurkat T cells. The series is classed as cell-based. Particulars: for expression of GMCSF / expression of IL-2: Compound 2 100 μM and 200 μM, 16 hours, FIG. 3. On the procedure:
It is further known that a mutation of c-Rel at S350 completely abrogates T cell receptor (TCR)-induced O-GlcNAcylation-dependent expression of GMCSF and IL-2 (Ramakrishnan, 2013). Thus, the specific inhibition of c-Rel O-GlcNAcylation by Compound 2 was studied. Jurkat cells were grown in RPMI medium at 1×10^6 cells/2 mL. The cells were treated with compound 2 (100 μM and 200 μM) for 16 hours. Cell death was assessed by propidium iodide (Biolegend) staining and flow cytometry. Following treatment with Compound 2, the resulting expression of GMCSF and IL-2 was measured. […] Further, treatment with Compound 2 specifically affected only the O-GlcNAcylation-dependent enhancement of IL-2 and GMCSF expression.
The range of concentrations at which Compound 2 is effective in suppression O-GlcNAcylation c-Rel function was studied. Jurket cells were exposed to Compound 2 in concentrations of 2 mM, 500 μM, 200 μM, 100 μM, 50 μM and 10 μM peptoid on TCR-induced GMCSF expression.
The effect of the scrambled peptoid, Compound 3, was also studied (FIG. 3, bottom right panel).

Series [2] concerns Jurket cells. The experiment in a line: Toxicity, cell death by propidium iodide staining and flow cytometry, Jurkat. In kind it is cell-based. On the procedure: (§1) The toxicity of Compound 2 was studied at 100 μM and 200 μM concentrations in Jurket cells (FIG. 5, left), BJAB B cells (FIG. 5, middle left), human primary CD4^+ T cells (FIG. 5, middle right), and human primary monocytes (FIG. 5, right). Cell death was assessed by propidium iodide staining and flow cytometry. […] Treatment with cycloheximide (CHX) (Sigma Aldrich), a generic inhibitor of translation, was used as a positive control for cell death induction.
A general note: In flow cytometry, cells or beads pass a laser one at a time.

For series [3], the system named is human primary CD4+ T cells. The experiment in a line: Toxicity, cell death by propidium iodide staining and flow cytometry, primary CD4+ T cells. The series is classed as cell-based. The procedure:
as §1

In series [4] the test system is BJAB B cells. The experiment in a line: Toxicity, cell death by propidium iodide staining and flow cytometry, BJAB. In kind it is cell-based. On the procedure:
as §1

Series [5] deals with T2, c-Rel (Homo sapiens, UniProt Q04864).
T2 construct: endogenous in cells
T2 sequence (Q04864 1-619): T1 sequence (Q04864 1-619)
The experiment in a line: Nuclear translocation of c-Rel, Western blot of cytoplasmic and nuclear extracts. The series is classed as cell-based. The conditions noted are these: FIG. 6 top. On the procedure:
Activation of c-Rel involves signal-induced translocation of c-Rel from the cytoplasm to the nucleus and its subsequent DNA binding and gene expression. Thus, the effect of treatment with Compound 2 and Compound 3 (comparative) on nuclear translocation of c-Rel were examined. Cytoplasmic and nuclear extracts were prepared and Western blotting was performed as described in DeJesus, T. J. and Ramakrishnan, P. “NF-kappaB c-Rel Dictates the Inflammatory Threshold by Acting as a Transcriptional Repressor.” iScience 23, 100876 (2020).

Series [6] deals with human primary monocytes. The series can be described thus: Toxicity, cell death by propidium iodide staining and flow cytometry, primary monocytes. The series is classed as cell-based. Particulars: 100 μM and 200 μM, 40 hours post-treatment. On the procedure: as §1
The test system of series [7] is B cells (BJAB). The series can be described thus: Non-specific activity in B cells. The series is classed as cell-based. The procedure: (§2) Compound 2 was further studied in B cells (BJAB) and macrophages (RAW 264.7). BJAB cells were grown in RPMI medium and RAW 264.7 cells were grown in DMEM medium supplemented with 100 U/mL penicillin/streptomycin, 4 mM L-glutamine and 10% fetal bovine serum.

The target in series [8] is T1, O-GlcNAcylated c-Rel. The series can be described thus: Oligonucleotide pull down assay, c-Rel binding to CD28RE DNA. The conditions noted are these: Jurket cells, anti-CD3/CD28 and Thiamet-G; Compound 2 at 50 μM. The procedure:
Oligonucleotide pull down assays were performed to examine whether Compound 2 binds to O-GlcNAcylated c-Rel and thus, competitively prevents its binding to CD28RE. Jurket cells were treated with anti-CD3/CD28 antibodies to trigger TCR activation and c-Rel nuclear translocation. Cells were contacted with Thiamet-G (an O-GlcNAse inhibitor) (Sigma Aldrich) to enhance cellular O-GlcNAcylation.

Series [9] relates to Leukemia K562 cells. The experiment in a line: Cell death in leukemia K562 cells. The series is classed as cell-based. Particulars: Compound 2 at 100 μM; compared with OSMI1 at 50 μM; FIG. 8. The procedure:
The effect of Compound 2 on […] cells was studied. Leukemia K562 cells were treated with HBP inhibitor OSMI1 (50 μM) or Compound 2 (100 μM). Scrambled peptoid Compound 3 was used as a control.

Series [10] has as its target T3, O-GlcNAcylated c-Rel (Homo sapiens, UniProt Q04864).
T3 construct: endogenous in cells; host or cells: primary CD4+ T cells from human PBMC
T3 sequence (Q04864 2-587 isoform Q04864-2): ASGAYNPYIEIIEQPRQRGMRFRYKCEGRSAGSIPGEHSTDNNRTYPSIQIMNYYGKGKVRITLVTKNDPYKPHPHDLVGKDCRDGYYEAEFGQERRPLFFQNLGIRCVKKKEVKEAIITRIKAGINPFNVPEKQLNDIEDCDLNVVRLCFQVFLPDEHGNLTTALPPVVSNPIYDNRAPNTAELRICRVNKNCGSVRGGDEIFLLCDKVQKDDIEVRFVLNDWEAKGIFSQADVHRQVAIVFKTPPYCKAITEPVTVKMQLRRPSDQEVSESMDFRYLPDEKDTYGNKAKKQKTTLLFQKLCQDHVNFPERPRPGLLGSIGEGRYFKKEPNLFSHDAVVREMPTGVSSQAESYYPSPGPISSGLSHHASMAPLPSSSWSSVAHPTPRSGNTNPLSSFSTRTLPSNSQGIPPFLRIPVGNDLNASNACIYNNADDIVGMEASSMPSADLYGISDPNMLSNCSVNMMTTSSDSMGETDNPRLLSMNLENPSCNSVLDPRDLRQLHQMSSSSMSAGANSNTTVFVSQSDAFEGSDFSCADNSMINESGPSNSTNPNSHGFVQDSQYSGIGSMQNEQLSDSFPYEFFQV
The experiment in a line: TCR-induced O-GlcNAcylated-c-Rel-dependent gene expression in primary CD4+ T cells. In kind it is cell-based. Particulars: 100 μM. On the procedure:
The effect of Compound 2 was studied in primary CD4^+ T cells isolated from human peripheral blood mononuclear cells. CD4+ T cells were […] were isolated by magnetic sorting (Miltenyi Biotec) and cultured in supplemented RPMI medium. Cells were treated with 100 μM of Compound 2 twice—at the start of the experiment and at 24 hrs.

For series [11], the system named is macrophages (RAW 264.7). The experiment in a line: Non-specific activity in macrophages. The series is classed as cell-based. The conditions noted are these: RAW 264.7 cells. On the procedure: as §2
The mark [12] stands for this setting: human primary T-cells, treated twice (start and 24 hrs).

Non-standard residues stand in square brackets, D forms with d. Residues, ends and D or L forms follow the SMILES beside them. NFurfurylGly = O=C(O)CNCc1ccco1; Gly(N-CH2CH2OH) = O=C(O)CNCCO; Nphe = O=C(O)CNCc1ccccc1; NPrGly = CCCNCC(=O)O

`COc1ccccc1[C@@H](NS(=O)(=O)c1ccc2[nH]c(=O)ccc2c1)C(=O)N(Cc1ccco1)Cc1cccs1` [OSMI1, reference compound]: in [1], the “expression of GMCSF” value is recorded as “well below the TCR-induced levels” and the “expression of IL-2” value is on record as “well below the TCR-induced levels”.

`C[C@@H]1C[C@@H]([C@H](O)CC2CC(=O)NC(=O)C2)C(=O)[C@@H](C)C1` [CHX, cycloheximide, reference compound]: the “cell death, positive control” value is given as “significant cell death” in [2] (Jurkat cells, 5 μg/mL, 16 hours post-treatment); “significant cell death” in series [3] (human primary T cells, 5 μg/mL, 16 hours post-treatment); “significant cell death” in series [4] (5 μg/mL, 16 hours post-treatment).

For the compound `CCCNCC(=O)N(CC(=O)N(CC(=O)N(CCO)CC(N)=O)Cc1ccccc1)Cc1ccco1` [Compound 2] (H-[NPrGly][NFurfurylGly][Nphe][Gly(N-CH2CH2OH)]-NH2), in series [5], the “change in nuclear c-Rel levels” value was “no significant change”. For the same compound, the cell death entry in [6] was “non-significant cell death”; in series [2] (Jurket cells, 100 μM and 200 μM, 40 hours post-treatment), “non-significant cell death”; in series [3] (human primary CD4+ T cells, 100 μM and 200 μM, 40 hours post-treatment), “non-significant cell death”; in series [4] (100 μM and 200 μM, 40 hours post-treatment), “non-significant cell death”. Also, the non-specific activity result in [7] and in series [11] was “does not exhibit any non-specific activity” throughout. For the same compound, the “binding of c-Rel to CD28RE DNA” value in [8] is recorded as “reduced the binding of c-Rel”. In series [9], the K562 cell death entry is recorded as “nearly comparable to that caused by known OGT inhibitor OSMI1”. The “TCR-induced expression levels of IL-2 and GMCSF (not O-GlcNAcylation-dependent)” value in series [1] is listed as “did not block”. The “O-GlcNAcylation-dependent GMCSF expression” value in series [1] (200 μM) is recorded as “near complete suppression”. Besides, the “GMCSF expression levels at higher concentrations” value in series [1] (500 μM and 2 mM) was “did not further decrease”. Further, the “expression of GMCSF” value in series [1] is recorded as “significantly decreased”. Moreover, the “expression of IL-2” value in series [1] is “significantly decreased”. In series [10] (setting [12]), the “TCR-induced O-GlcNAcylation-dependent increase in expression of GMCSF” value is “effectively and significantly decreased”. Besides, in series [10] (setting [12]), the “TCR-induced O-GlcNAcylation-dependent increase in expression of IL-2” value was “effectively and significantly decreased”. In series [10] (primary T cells), the “TCR-induced expression level of GMCSF, IL-2 and other NF-kappaB-induced genes such as A20 and I-kappa-B-alpha” value is “did not block”.

Consider `CCCN(CC(=O)N(CC(N)=O)Cc1ccccc1)C(=O)CN(CCO)C(=O)CNCc1ccco1` [Compound 3] (H-[NFurfurylGly][Gly(N-CH2CH2OH)][NPrGly][Nphe]-NH2), for which the “change in nuclear c-Rel levels” value in series [5] is on record as “no significant change”. Also, the “binding of c-Rel to CD28RE DNA” value in [8] was “did not block the binding of c-Rel”. Besides, the K562 cell death entry in series [9] was “no significant cell death”. Also, in series [1] (FIG. 3 bottom right), the “inhibitory effect on GMCSF expression, scrambled peptoid control” value is given as “no inhibitory effect”.

Values taken from US12398185B2, “Peptoid blocking O-GlcNAcylated NF-kappaB c-Rel” (Case Western Reserve University, priority 2019, dated 2025).
